Test results from patent publication US5622948A, “Pyrrole pyridazine and pyridazinone anti-inflammatory agents” (Syntex (U.S.A.) Inc., priority 1994, dated 1997).
Several values for one entry are separate records, joined by “and”; a condition that tells them apart may be missing. Equal values may be shown once. Entries after “also recorded” stand apart in the source; their conditions may differ.

How the values were obtained:
COX II [1] = molecular target: T1, COX II (Homo sapiens, UniProt P35354); assay: radiometric assay, COX II inhibition (human recombinant, baculovirus expressed, partially purified); assay type: biochemical; design: A 1.8 Kb DNA fragment containing the coding region of human COX II was generated by PCR; made in house; host or cells: Sf9 insect cells, baculovirus
T1 sequence (P35354 18-604): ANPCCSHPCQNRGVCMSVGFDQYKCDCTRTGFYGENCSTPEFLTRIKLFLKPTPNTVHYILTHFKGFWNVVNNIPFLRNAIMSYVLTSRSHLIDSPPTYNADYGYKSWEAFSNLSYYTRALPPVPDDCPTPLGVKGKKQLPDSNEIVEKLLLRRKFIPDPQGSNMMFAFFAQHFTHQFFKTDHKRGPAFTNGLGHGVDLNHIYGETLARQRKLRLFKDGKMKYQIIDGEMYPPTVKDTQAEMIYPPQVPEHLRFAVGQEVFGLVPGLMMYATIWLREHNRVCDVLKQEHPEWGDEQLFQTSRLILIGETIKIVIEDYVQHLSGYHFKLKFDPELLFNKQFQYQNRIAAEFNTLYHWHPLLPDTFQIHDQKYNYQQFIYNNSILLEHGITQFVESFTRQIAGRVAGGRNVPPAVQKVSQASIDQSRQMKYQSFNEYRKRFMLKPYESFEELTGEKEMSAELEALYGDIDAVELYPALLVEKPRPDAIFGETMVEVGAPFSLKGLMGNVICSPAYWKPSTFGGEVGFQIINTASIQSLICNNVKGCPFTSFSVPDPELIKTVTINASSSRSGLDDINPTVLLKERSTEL
How it was run: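 Partially purified baculovirus-expressed human enzyme preincubated with compound, 2 mM phenol (5 min) then 1 μM hematin (5 min). Reaction in Tris-HCl pH 7.9 with 20 μM 1-[14C]arachidonate for 45 s at room temperature, acid-stopped; oxygenated products isolated on Sep-Pak and counted by scintillation.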

COX II [2] = molecular target: T1, COX II; assay: PGE2 production in human foreskin fibroblasts stimulated with IL-1 and PMA; assay type: cell-based; design: A 1.8 Kb DNA fragment containing the coding region of human COX II was generated by PCR; made in house; host or cells: Sf9 insect cells, baculovirus; conditions: read-out: COX II IC50, inhibition of PGE2 production
Method: A summary of activities of Compound (16) against COX I and COX II in cell-free enzyme preparations and whole cells is presented in Table 1. The following abbreviations are used: AA is arachidonic acid, IL-1 is interleukin 1, PMA is phorbol myristate acetate, A23187 is a calcium ionophore (Sigma), BSA is bovine serum albumin and LPS is a lipopolysaccharide (Sigma).
Human foreskin fibroblasts
30 min incubation with Compound (16)
16 hr admulation with IL-1 and PMA
washing, transfer to fresh media
EIA determination of PGE2
16 hr stimulation with IL-1 and PMA
RIA determination of PGE2

Cc1cc(Cc2ccc(=O)[nH]n2)n(C)c1C(=O)c1ccc(Cl)cc1 [Compound 16, 6-[1,4-dimethyl-5-(4chloro-benzoyl)-1H-pyrrol-2-ylmethyl]-2H-pyridazin-3-one]
type of inhibition of COX II (COX II [1]): potent, time-dependent, reversible inhibition
IC50 (COX II [1]; 10 min incubation with compound, 45 sec incubation with 20 μM AA, separation of radioactive products, read-out: COX II IC50): 580 to 900 nM and 580 nM and 900 nM and 640 nM
selectivity for COX II (COX II [1]; COX II over COX I): significantly more selective for COX II than currently available NSAIDs; also recorded: highly selective for COX II
IC50 (COX II [2]; 30 min incubation, 10 min activation, 5 μM A23187, RIA determination of PGE2): 120 nM and 170 nM and 140 nM
IC50 (COX II [2]; 30 min incubation; a) 10 min activation with 5 μM A23187, EIA determination of PGE2): ≤ 100 nM
IC50 (COX II [2]; 30 min incubation; b) 10 min activation with 20 μM AA + FA-free BSA, EIA determination of PGE2): ~2700 nM
